Reference: patent US7074779B2, “Estrieno[3,2-b]/[3,4-c]pyrrole derivatives useful as modulators of the estrogen receptors” (Ortho-McNeil Pharmaceutical, Inc., priority 2003, dated 2006)

These compounds were tested against T1, human estrogen receptor β (Homo sapiens, UniProt Q92731) (assay: Estrogen Receptor β Fluorescence Polarization Assay). Details: displacement of Fluormone ES2; read-out: ERβ Binding IC50.
T1 construct: purchased Panvera
Text: This assay monitors binding of a fluorescent analog of estrogen (Fluormone ES2, Panvera) to the estrogen receptor. Plates were read in a fluorometer that can be set to polarization mode. A decrease in […] relative to vehicle control is an indication of binding of a compound to the receptor. It is crucial to avoid introduction of air bubbles into the reaction in each well of the 96 well plate throughout this procedure. (Bubbles on the surface of the reaction disrupt light flow, affecting the polarization reading.) However, it is also crucial to effectively mix the reaction components upon addition to the well. On ice, a 2× standard mixture of Assay Buffer (Panvera), 10 nM DTT and 40 nM ES2 was prepared. On ice, a 2× reaction mixture of Assay Buffer (Panvera), and 20 nM human estrogen receptor β (hER-β, Panvera) and 40 nM ES2 was also prepared. Dilutions-of test compound were prepared in 30% (v/v) dimethyl sulfoxide/50 mM HEPES, pH 7.5. At this point, the dilutions were 40× the final required concentration. The standard mixture at 50 μL was then added to each well. The reaction mixture at 48 μL was added to all wells. The compound dilution at 2.5 μL was added to the appropriate wells. The reaction mixtures were mixed using a manual pipette, a roll of aluminum foil adhesive cover was placed on the plate and the plate incubated at room temperature for 1 hour. Each well on the plate was then read in an LjL Analyst with an excitation wavelength of […] and an emission wavelength of 538.

T1 sequence (Q92731 whole entry): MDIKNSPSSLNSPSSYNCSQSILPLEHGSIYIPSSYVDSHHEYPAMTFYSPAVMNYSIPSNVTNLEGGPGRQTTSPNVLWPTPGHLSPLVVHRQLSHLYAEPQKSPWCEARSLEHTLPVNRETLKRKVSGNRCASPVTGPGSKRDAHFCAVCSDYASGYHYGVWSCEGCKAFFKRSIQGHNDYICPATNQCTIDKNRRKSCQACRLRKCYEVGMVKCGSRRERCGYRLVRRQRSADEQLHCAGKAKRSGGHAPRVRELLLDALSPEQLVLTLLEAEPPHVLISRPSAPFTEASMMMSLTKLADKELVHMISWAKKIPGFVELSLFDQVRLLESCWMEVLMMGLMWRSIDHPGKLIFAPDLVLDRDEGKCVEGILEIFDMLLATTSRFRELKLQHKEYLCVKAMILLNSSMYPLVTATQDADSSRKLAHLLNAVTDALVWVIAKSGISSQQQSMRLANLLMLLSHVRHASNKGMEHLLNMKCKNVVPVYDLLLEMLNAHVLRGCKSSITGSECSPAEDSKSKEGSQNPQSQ

| IC50 [nM] | SMILES |
| --- | --- |
| > 10000 | C[C@]12CCC3c4cc5cc[nH]c5cc4CCC3C1CCC2=O (some centres unmarked) [Compound 3] |
| 610 | C[C@]12CCC3c4ccc5[nH]ccc5c4CCC3C1CCC2=O (some centres unmarked) [Compound 4] |
| 150 | C[C@]12CCC3c4cc5cc[nH]c5cc4CCC3C1CC[C@@H]2O (some centres unmarked) [Compound 8] |
| 610 | C[C@]12CCC3c4cc5cc[nH]c5cc4CCC3C1CC[C@@H]2OC(=O)CCC(=O)O (some centres unmarked) [Compound 13] |
| 91 | C[C@]12CCC3c4ccc5[nH]ccc5c4CCC3C1CC[C@@H]2O (some centres unmarked) [Compound 6] |
